One experiment addresses T1, CDK2 (Homo sapiens, UniProt P24941).
T1 construct: HEK293 clonal lines with CRISPR KI HiBiT tag on CDK2 proteins; host or cells: HEK293 clonal line, CRISPR knock-in HiBiT-CDK2, stably expressing LgBiT
Put plainly: HiBiT assay (CDK2 degradation). The following applies: HEK293 clonal line with CRISPR KI HiBiT tag on CDK2, 24 hours, HiBiT Lysis Reagent. The format is cell-based. The protocol: HEK293 clonal lines with CRISPR KI HiBiT tag on CDK2 proteins and stably expressing LgBiT protein were obtained from Promega (Madison, WI). Cells were plated at 5000 cells per well using Multiflo (BioTek) in 384-well white solid bottom plates (Corning, 3570BC) in 25 ul volume in DMEM media (DMEM, high glucose, HEPES, no phenol red (ThermoFisher Scientific, 21063029)) containing 10% FBS (Corning, 35-075-CV), 1% Penicillin/Streptomycin (ThermoFisher Scientific, 15140-122). Cells were incubated for 16 hours at 37° C., 5% CO2. 75 nL of a compound at 30 μM were dosed into the plate using an Echo® 650 liquid handler (Labcyte). Cells were incubated at 37° C., 5% CO2 for 24 hours. 5 ul of HiBiT Lysis Reagent (Promega, N3030) is added using Combi Multidrop (ThermoFisher Scientific), plates are incubated for 15′ at 37° C., 5% CO2 and then signal was read on a Pherastar FSX using “LUM plus” optic module.
Analysis was performed in Scinamic (Scinamic, Cambridge, MA). Luminescence response (R) was calculated by the formula: response=100*(S−N)/(P−N) where S is the signal of the well, N and P the mean negative and positive control values respectively of the same plate. The luminescence response was then fitted in Scinamic using a 3-parameter agonist logistic fit (hillslope=1, EC50>0, top/bottom unconstrained).
On the technique in general: With HiBiT, luminescence reflects the tagged protein that the partner subunit can reach.

Another experiment has as its target CRBN-DDB1 (Homo sapiens, UniProt Q96SW2). Put plainly: Compound binding to CRBN by HTRF assay. The following applies: CRBN-DDB1 2.5 nM, Cy5-Thalidomide 100 nM, 30 min; Ki from geometric mean IC50 by Cheng-Prustoff transformation. In a few lines: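 HTRF displacement of Cy5-thalidomide probe (100 nM) from His-CRBN-DDB1 (2.5 nM) with anti-His terbium cryptate, in HEPES/NaCl/TCEP/EDTA/Tween20 buffer. 10-point 1:3 compound series, 30 min at ambient temperature; signal normalised to DMSO and lenalidomide controls, IC50 fitted and Ki derived by Cheng-Prusoff.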
In general terms: Time-resolved FRET reads energy transfer from a long-lived donor to a nearby acceptor.

Where only a bound is given, the exact number is not on record here.

Chain of CRBN-DDB1 (Q96SW2 whole entry): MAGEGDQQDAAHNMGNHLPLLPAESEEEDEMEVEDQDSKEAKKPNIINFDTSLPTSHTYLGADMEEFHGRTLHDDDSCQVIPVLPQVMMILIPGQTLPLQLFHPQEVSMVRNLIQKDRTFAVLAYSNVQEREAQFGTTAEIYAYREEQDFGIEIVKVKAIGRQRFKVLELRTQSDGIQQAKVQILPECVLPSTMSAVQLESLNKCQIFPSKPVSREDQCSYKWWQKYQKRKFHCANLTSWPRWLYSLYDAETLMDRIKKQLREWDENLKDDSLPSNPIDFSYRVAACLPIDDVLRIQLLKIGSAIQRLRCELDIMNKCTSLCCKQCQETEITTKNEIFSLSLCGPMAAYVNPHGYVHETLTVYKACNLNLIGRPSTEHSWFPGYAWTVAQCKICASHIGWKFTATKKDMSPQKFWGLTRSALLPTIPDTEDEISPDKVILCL
Chain of CRBN-DDB1 (Q16531 whole entry partner): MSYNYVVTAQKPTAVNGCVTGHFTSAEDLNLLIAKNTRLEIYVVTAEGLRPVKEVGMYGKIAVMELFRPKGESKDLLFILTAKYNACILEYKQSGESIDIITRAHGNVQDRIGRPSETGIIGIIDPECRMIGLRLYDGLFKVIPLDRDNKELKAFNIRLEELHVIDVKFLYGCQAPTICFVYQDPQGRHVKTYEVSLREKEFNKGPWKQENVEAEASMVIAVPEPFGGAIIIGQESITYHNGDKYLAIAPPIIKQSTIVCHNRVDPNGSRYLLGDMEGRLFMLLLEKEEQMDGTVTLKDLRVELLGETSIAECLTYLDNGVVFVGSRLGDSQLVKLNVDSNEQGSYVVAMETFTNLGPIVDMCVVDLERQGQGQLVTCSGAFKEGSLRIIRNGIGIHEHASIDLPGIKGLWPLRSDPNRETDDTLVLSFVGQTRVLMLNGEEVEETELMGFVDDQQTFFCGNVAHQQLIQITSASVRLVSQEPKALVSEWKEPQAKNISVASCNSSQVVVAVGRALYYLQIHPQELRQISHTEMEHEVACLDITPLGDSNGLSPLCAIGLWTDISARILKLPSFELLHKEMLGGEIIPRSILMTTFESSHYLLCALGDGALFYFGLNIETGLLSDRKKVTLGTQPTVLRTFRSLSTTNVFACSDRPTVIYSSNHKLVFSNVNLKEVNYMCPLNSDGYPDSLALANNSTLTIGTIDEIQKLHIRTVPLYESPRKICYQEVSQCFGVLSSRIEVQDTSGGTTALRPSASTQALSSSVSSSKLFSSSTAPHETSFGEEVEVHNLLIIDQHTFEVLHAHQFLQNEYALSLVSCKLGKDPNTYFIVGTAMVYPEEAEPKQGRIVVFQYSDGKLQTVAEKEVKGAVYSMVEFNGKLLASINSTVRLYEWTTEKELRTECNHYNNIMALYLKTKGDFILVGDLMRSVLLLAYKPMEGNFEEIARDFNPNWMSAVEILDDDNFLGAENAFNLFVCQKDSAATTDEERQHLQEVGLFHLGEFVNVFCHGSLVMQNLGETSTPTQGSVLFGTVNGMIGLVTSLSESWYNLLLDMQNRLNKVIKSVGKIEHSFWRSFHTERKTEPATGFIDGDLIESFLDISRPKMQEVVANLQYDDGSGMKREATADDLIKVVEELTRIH

Take `O=C1CCC(N2Cc3ccc(CNC(=O)O[C@@H]4CO[C@@H]4c4ccccc4)cc3C2=O)C(=O)N1` (mixture of isomers) [Compound 37, rac-(2R,3R)-2-phenyloxetan-3-yl N-{[2-(2,6-dioxopiperidin-3-yl)-3-oxo-2,3-dihydro-1H-isoindol-5-yl]methyl}carbamate]: the Dmax (commonly the largest share of the target that was removed) on CDK2 was at most 10%. Further, the Ki – broadly, a dissociation constant, usually derived from enzyme kinetics or from competition with a known ligand – at CRBN-DDB1 was in the range of 100 to 1000 nM.

Turning to `CCOC1CC(COC(=O)NCc2ccc3c(c2)C(=O)N(C2CCC(=O)NC2=O)C3)C1` (centres unmarked) [Compound 67, (3-ethoxycyclobutyl)methyl N-{[2-(2,6-dioxopiperidin-3-yl)-3-oxo-2,3-dihydro-1H-isoindol-5-yl]methyl}carbamate], the Dmax on CDK2 fell in the range of 10 to 50%. Also, at CRBN-DDB1, the Ki is 100 to 1000 nM.

At CDK2, `O=C1CCC(N2Cc3ccc(CNC(=O)OC4CC4)cc3C2=O)C(=O)N1` (centres unmarked) [Compound 14, cyclopropyl N-{[2-(2,6-dioxopiperidin-3-yl)-3-oxo-2,3-dihydro-1H-isoindol-5-yl]methyl}carbamate] gave a Dmax of 10 to 50%. The Ki on CRBN-DDB1 lay within 100 to 1000 nM.

The molecule `O=C1CCC(N2Cc3ccc(CNC(=O)OCC4CCOC4)cc3C2=O)C(=O)N1` (centres unmarked) [Compound 43, (oxolan-3-yl)methyl N-{[2-(2,6-dioxopiperidin-3-yl)-3-oxo-2,3-dihydro-1H-isoindol-5-yl]methyl}carbamate] registered a Dmax on CDK2 of 10 to 50%. This molecule displayed a Ki at CRBN-DDB1 of at most 100 nM.

Molecule `O=C1CCC(N2Cc3ccc(CNC(=O)OCC4CCc5ccccc54)cc3C2=O)C(=O)N1` (centres unmarked) [Compound 18, (2,3-dihydro-1H-inden-1-yl)methyl N-{[2-(2,6-dioxopiperidin-3-yl)-3-oxo-2,3-dihydro-1H-isoindol-5-yl]methyl}carbamate] came in with a Dmax at CDK2 of 10 to 50%. Besides, at CRBN-DDB1, the Ki lay in the range of 100 to 1000 nM.

Regarding `O=C1CCC(N2Cc3ccc(CNC(=O)OCC4CCC(F)(F)CC4)cc3C2=O)C(=O)N1` (centres unmarked) [Compound 88, (4,4-difluorocyclohexyl)methyl N-{[2-(2,6-dioxopiperidin-3-yl)-3-oxo-2,3-dihydro-1H-isoindol-5-yl]methyl}carbamate], at CDK2, the Dmax lay in the range of 10 to 50%. This molecule showed a Ki on CRBN-DDB1 of 100 to 1000 nM.

`CC1(CCCOC(=O)NCc2ccc3c(c2)C(=O)N(C2CCC(=O)NC2=O)C3)CC1` (centres unmarked) [Compound 65, 3-(1-methylcyclopropyl)propyl N-{[2-(2,6-dioxopiperidin-3-yl)-3-oxo-2,3-dihydro-1H-isoindol-5-yl]methyl}carbamate]: the Dmax at CDK2 lay in the range of 50 to 80%. On CRBN-DDB1, this molecule displayed a Ki of at most 100 nM.

On to `CN1CCC(OC(=O)NCc2ccc3c(c2)C(=O)N(C2CCC(=O)NC2=O)C3)C1` (centres unmarked) [Compound 40, 1-methylpyrrolidin-3-yl N-{[2-(2,6-dioxopiperidin-3-yl)-3-oxo-2,3-dihydro-1H-isoindol-5-yl]methyl}carbamate], for which the greatest degradation seen (Dmax) at CDK2 is at most 10%. On CRBN-DDB1, the Ki fell in the range of 100 to 1000 nM.

With `CC(C)(CCOC(=O)NCc1ccc2c(c1)C(=O)N(C1CCC(=O)NC1=O)C2)C1CC1` (centres unmarked) [Compound 69, 3-cyclopropyl-3-methylbutyl N-{[2-(2,6-dioxopiperidin-3-yl)-3-oxo-2,3-dihydro-1H-isoindol-5-yl]methyl}carbamate], at CDK2, the Dmax lay in the range of 50 to 80%. The molecule also showed a Ki on CRBN-DDB1 of at most 100 nM.

Take `O=C1CCC(N2Cc3ccc(CNC(=O)OC4CC5(CCCCC5)C4)cc3C2=O)C(=O)N1` (centres unmarked) [Compound 4, spiro[3.5]nonan-2-yl ((2-(2,6-dioxopiperidin-3-yl)-3-oxoisoindolin-5-yl)methyl)carbamate]: the Dmax on CDK2 lay in the range of 50 to 80%. At CRBN-DDB1, this molecule displayed a Ki of 100 to 1000 nM.
